One assay deals with ZRT1 promoter. Briefly: ZRT1-lacZ fusion β-galactosidase assay. Format: cell-based, Saccharomyces cerevisiae. The settings on record: LZM-EDTA, 16 hours. The method, then:
(§1) Zinc uptake assays were performed as described previously for iron uptake (Eide et al. (1992) J. Biol. Chem. 267:20774-20781) except that ^65ZnCl2 (Amersham) and LZM-EDTA were substituted for ^59FeCI3 and LIM-EDTA, respectively. Cells were incubated for 5 minutes in LZM-EDTA plus the indicated concentration of ^65Zn, collected on glass fiber filters (Schleicher and Schuell), washed with 10 ml ice-cold SSW (1 mM EDTA, 20 mM trisodium citrate, 1 mM KH2PO4, 1 mM CaCl2, 5 mM MgSO4, 1 mM NaCl pH 4.2), and cell-associated radioactivity was measured by liquid scintillation counting. Cells were starved for glucose by incubating them in LZM-EDTA prepared without glucose for one hour at 30° C. prior to assay. Michaelis-Menten kinetic values were determined using […] software (Intellikinetics, Princeton, N.J.). Stock solutions of the chloride salts of Co, Cu, Mg, Mn, and Ni were prepared in distilled water at a concentration of 100 mM. The nonradioactive ZnCl2 stock was prepared at 100 mM in 0.02 N HCl and the FeCl3 stock was prepared at 50 mM in 0.1 N HCl. The statistical significance of the differences of values relative to controls was determined with one-way analysis of variance (ANOVA) followed by a Dunnett multiple comparison test. β-galactosidase activity was assayed in cells harvested at an OD600 of 0.5-2.0 as described by Guarente (Guarente, L. (1983) Methods Enzymol. 101:181-191) and activity is expressed as the change in absorbance at 420 nm×1000 divided by (min×ml of culture used×OD600 of the culture). Cell-associated zinc was measured in parallel cultures supplemented with tracer amounts of ^65Zn (10 μM) and nonradioactive zinc to the indicated final concentration. Aliquots (0.5 ml) were filtered, washed with 10 ml ice-cold SSW, and radioactivity measured by liquid scintillation.
The effects of the zrt2 mutation on the regulation of the ZRT1 gene was also examined. […] Furthermore, cell-associated zinc levels are much lower in the zrt1 mutant grown in zinc-limiting conditions. At higher concentrations of extracellular zinc, however, these levels increased to the wild type levels. It was proposed that this accumulation was the result of zinc uptake by the low affinity system. To test this hypothesis and determine the effect of the zrt2 mutation on the pool of intracellular zinc that regulates ZRT1 gene expression, β-galactosidase activity from the ZRT1-lacZ fusion in wild type, zrt1, zrt2, and zrt1zrt2 mutant strains grown in media supplemented with a broad range of zinc concentrations was measured. […] These values are also plotted against the calculated free zinc concentration ([Zn]F). […]

The target in another assay is T1, ZIP3 (Arabidopsis thaliana, UniProt Q9SLG3).
T1 construct: expressed in transfected cells; host or cells: S. cerevisiae ZHY3 (zrt1::LEU2 zrt2::HIS3) with an Arabidopsis cDNA clone in pFL61
T1 sequence (Q9SLG3 26-339): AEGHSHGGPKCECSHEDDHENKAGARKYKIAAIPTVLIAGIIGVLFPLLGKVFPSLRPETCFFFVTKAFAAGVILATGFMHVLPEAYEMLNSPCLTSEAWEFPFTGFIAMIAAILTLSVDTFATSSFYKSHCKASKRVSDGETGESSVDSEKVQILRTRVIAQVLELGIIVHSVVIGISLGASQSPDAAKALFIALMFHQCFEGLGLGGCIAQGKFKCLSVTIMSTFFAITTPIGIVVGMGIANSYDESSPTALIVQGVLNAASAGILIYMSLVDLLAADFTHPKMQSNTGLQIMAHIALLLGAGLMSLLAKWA
In words: Zn uptake by ZHY3 containing ZIP3. Format: cell-based. The settings on record: ZIP3 containing ZHY3 cells, 5 minute time course using 10 mM Zn. The method, then:
as §1, with “Cells were starved for glucose by incubating them in LZM-EDTA prepared without glucose for one hour at 30° C. prior to assay.” left out, “Stock solutions of the chloride salts of Co, Cu, Mg, Mn, and Ni were prepared in distilled water at a concentration of 100 mM. The nonradioactive ZnCl2 stock was prepared at 100 mM in 0.02 N HCl and the FeCl3 stock was prepared at 50 mM in 0.1 N HCl.” left out, “Aliquots (0.5 ml) were filtered, washed with 10 ml ice-cold SSW, and radioactivity measured by liquid scintillation.” left out

The structures appear in SMILES notation. Where only a bound is given, the exact number is not on record here.

With `[Zn+2]` [zinc], in the assay on ZRT1 promoter (zrt1 mutant), the “calculated free zinc [Zn]F at which β-galactosidase activity decreased to its minimal level” value was roughly 0.12 µM and the “total zinc at which β-galactosidase activity decreased to its minimal level” value stood at 10 µM. Also, in the assay with ZRT1 promoter (zrt1zrt2 mutant), the “calculated free zinc [Zn]F at which ZRT1-lacZ expression was down-regulated” value was roughly 2.4 µM and the “total zinc concentration at which ZRT1-lacZ expression was down-regulated” value was no less than 200 µM. Besides, the Zn uptake rate on ZIP3 is listed as 134 fmol/min/10^6 cells.

Values taken from patent US6590140B1, “Metal-regulated transporters and uses therefor” (Trustees of Dartmouth College, priority 1996, dated 2003).
